Results taken from patent publication US20210060093A1, “COMBINATION THERAPY FOR TREATING OR PREVENTING CANCER” (4D Pharma Research Limited, priority 2018, published 2021).

Key:
[1] = test system: RENCA tumour cells; test: Antitumor activity, RENCA model; format: in vivo, mouse; conditions: D18 and D22, compared to untreated and vehicle groups, FIG. 3B
Protocol: Treatment schedule—The start of first dosing was considered as D0. On D0, non-engrafted mice were randomized according to their individual body weight into groups of 9 mice using Vivo manager® software (Biosystemes, Couternon, France). On D0, the mice received vehicle (culture medium) or bacterial strain (2×10^8 in 200 μL, PO). On D14, all mice were engrafted with RENCA tumour cells injected SC into the ventral surface of the lower flank as described below. Treatment with anti-CTLA-4 (10 mg/kg, IP) and anti-PDL1 (clone 10F.9G2, 10 mg/kg) was initiated when tumours reached a volume of 50-70 mm3.
Orthotopic induction of RENCA tumor cells in animals by SC injection—On D14, one million (1×10^6) RENCA tumor cells in 50 μL RPMI 1640 medium were transplanted via SC injection into the ventral surface of the lower flank of mice.
Euthanasia—Each mouse was euthanized when it reached a humane endpoint as described in section below, or after a maximum of 6 weeks post start of dosing.
Evaluation of tumour burden at euthanasia—At the time of termination, tumours were collected and their volume evaluated.
Clinical monitoring—The length and width of the tumour was measured twice a week with callipers and the volume of the tumour was estimated by this formula [52]: […]

[2] = test system: immature dendritic cells; test: Cytokine production in immature dendritic cells; format: cell-based; conditions: MRX518 10^7/ml, LPS 100 ng/ml, FIGS. 4b, 4d
Protocol: A monocyte population was isolated from peripheral blood mononuclear cells (PBMCs). The monocyte cells were subsequently differentiated into immature dendritic cells. The immature dendritic cells were plated out at 200,000 cells/well and incubated with MRX518 at a final concentration of 10^7/ml, with the optional addition of LPS at a final concentration of 100 ng/ml. The negative control involved incubating the cells with RPMI media alone and positive controls incubated the cells with LPS at a final concentration of 100 ng/ml. The cytokine content of the cells was then analysed.

Molecule	reduction in tumour size [1]	level of IL-1β [2]
CC(=O)O[C@H]1C(=O)[C@@]2(C)[C@H]([C@H](OC(=O)c3ccccc3)[C@]3(O)C[C@H](OC(=O)[C@H](O)[C@@H](NC(=O)c4ccccc4)c4ccccc4)C(C)=C1C3(C)C)[C@]1(OC(C)=O)CO[C@@H]1C[C@@H]2O [Paclitaxel]	(almost) complete reduction in tumour size	
lipopolysaccharide [LPS]		but not IL-1β
